The target of assay [1] is Cyclin-dependent kinase 2/cyclin A (Homo sapiens, UniProt P24941). As to the kind of experiment: Inhibition of human recombinant CDK2/cyclin A expressed in insect cells.
Another assay concerns HEK293. As to the kind of experiment: cells. The following applies: Homo sapiens, HEK293, 48 h.
The next assay addresses CDK9/cyclin T1 (Homo sapiens, UniProt P50750). As to the kind of experiment: Inhibition of human recombinant CDK9/cyclin T expressed in insect cells.
The subject of another assay is GBM. The assay can be described thus: cells. The following applies: Homo sapiens, 48 h.
The subject of a further assay is KMS-11. As to the kind of experiment: cells. The following applies: Homo sapiens, KMS-11, 48 h.
Assay [2] deals with Cyclin-dependent kinase 5/CDK5 activator 1 (Homo sapiens, UniProt Q00535). As to the kind of experiment: Inhibition of recombinant GST-CDK5/p25 expressed in Escherichia coli.
The subject of another assay is LS174T. The assay can be described thus: cells. Conditions: Homo sapiens, 48 h.
The next assay relates to SH-SY5Y. As to the kind of experiment: cells. Conditions: Homo sapiens, 48 h.
Assay [3] in a line: Inhibition of pig GSK-3-alpha/GSK-3beta. Details: species or system Sus scrofa.
A short description of assay [4]: Inhibition of starfish oocyte CDK1/cyclin B. Details: species or system Marthasterias glacialis.
Assay [5] is described as follows: Inhibition of pig CK1delta/CK1epsilon. The arrangement: species or system Sus scrofa.
Assay [6] concerns the target Dual specificity tyrosine-phosphorylation-regulated kinase 1A (Rattus norvegicus, UniProt Q63470). The assay can be described thus: Inhibition of rat recombinant GST-DYRK1A expressed in Escherichia coli.
For assay [7], the system named is HCT-116. The assay can be described thus: Antiproliferative activity against human HCT116 cells after 5 days. It counts as functional, cell-based. The following applies: HCT-116, 120 h.
Assay [8] concerns HCT-116. The assay can be described thus: Antiproliferative activity against human HCT116 cells assessed as reduction in diameter of spheroids at 1 uM after 5 days. The class given is functional.

Molecules are shown by their SMILES. pIC50: −log10 of the molar value. A value given as a limit tells only on which side of the number the result lay.

One may read the pIC50 as the IC50 on a negative log10 scale, so that one unit is a factor of ten.

Cyclin-dependent kinase 5/CDK5 activator 1, sequence (Q00535 whole entry): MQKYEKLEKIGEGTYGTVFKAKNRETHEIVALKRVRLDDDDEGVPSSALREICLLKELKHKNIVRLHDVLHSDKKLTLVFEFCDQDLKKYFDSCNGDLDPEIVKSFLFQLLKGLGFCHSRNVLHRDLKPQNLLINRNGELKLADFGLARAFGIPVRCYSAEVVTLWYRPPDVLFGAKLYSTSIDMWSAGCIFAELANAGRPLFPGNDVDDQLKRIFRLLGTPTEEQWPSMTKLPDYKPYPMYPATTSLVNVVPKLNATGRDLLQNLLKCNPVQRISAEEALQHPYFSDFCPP
Cyclin-dependent kinase 5/CDK5 activator 1, sequence (Q15078 whole entry, further chain): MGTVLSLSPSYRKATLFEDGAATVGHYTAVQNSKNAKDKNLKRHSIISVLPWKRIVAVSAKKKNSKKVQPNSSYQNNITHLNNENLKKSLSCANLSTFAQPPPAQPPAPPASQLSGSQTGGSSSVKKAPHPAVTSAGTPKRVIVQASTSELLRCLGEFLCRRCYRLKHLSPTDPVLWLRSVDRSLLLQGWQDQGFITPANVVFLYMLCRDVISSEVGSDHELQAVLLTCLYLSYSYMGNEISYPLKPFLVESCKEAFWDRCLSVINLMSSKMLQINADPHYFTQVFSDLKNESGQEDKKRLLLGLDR
CDK9/cyclin T1, sequence (O60563 whole entry): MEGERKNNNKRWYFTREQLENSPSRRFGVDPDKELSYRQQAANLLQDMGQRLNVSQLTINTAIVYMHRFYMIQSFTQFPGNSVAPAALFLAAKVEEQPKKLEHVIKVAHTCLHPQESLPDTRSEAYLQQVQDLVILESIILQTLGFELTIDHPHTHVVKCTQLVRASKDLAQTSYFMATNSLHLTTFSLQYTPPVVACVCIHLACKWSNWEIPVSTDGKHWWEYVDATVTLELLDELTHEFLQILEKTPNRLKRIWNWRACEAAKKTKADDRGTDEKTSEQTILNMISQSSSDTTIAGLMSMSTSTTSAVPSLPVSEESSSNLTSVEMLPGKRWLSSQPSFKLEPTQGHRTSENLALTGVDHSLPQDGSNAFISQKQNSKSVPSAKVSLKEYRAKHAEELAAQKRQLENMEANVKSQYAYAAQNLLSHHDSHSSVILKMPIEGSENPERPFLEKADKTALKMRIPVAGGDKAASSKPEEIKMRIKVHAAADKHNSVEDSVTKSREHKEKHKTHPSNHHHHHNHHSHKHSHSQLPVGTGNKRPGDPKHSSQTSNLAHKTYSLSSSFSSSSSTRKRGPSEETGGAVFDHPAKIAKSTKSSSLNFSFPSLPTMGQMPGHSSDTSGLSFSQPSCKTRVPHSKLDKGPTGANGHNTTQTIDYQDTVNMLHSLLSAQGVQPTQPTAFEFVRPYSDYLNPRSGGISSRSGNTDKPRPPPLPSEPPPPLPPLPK
CDK9/cyclin T1, sequence (P50750 whole entry): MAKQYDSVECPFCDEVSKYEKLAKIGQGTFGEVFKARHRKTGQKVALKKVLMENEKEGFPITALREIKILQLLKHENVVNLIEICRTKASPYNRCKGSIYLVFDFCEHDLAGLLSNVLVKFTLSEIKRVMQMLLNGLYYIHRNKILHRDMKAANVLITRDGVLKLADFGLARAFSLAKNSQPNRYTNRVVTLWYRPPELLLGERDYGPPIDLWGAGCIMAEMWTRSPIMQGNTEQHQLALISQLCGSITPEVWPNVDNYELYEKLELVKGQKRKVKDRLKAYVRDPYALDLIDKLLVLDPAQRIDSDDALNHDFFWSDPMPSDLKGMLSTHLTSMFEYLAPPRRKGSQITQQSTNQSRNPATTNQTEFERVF
Description for GBM: Survival of human GBM cells after 48 hrs by neutral red reduction assay
Description for HEK293: Survival of human HEK293 cells after 48 hrs by MTS reduction assay
Description for KMS-11: Survival of human KMS11 cells after 48 hrs by neutral red reduction assay
Description for LS174T: Survival of human LS174T cells after 48 hrs by MTS reduction assay
Description for SH-SY5Y: Survival of human SHSY5Y cells after 48 hrs by MTS reduction assay

Regarding `Oc1ccnc2[nH]cc(-c3ccncn3)c12`, the pIC50 is 6.15 in [1]; 4.08 in the assay with HEK293; 6.60 at CDK9/cyclin T1; less than 4.70 with GBM; less than 4.82 with KMS-11; 6.15 in [2]. In addition, the pIC50 with LS174T is 4.63; with SH-SY5Y, 4.55; in assay [3], 5.74.

Take `CC(C)Oc1ccnc2[nH]cc(-c3ccnc(N)n3)c12` [MERIOLIN 6]: the pIC50 in the assay with HEK293 is 7.05; at CDK9/cyclin T1 it was 8.25; in the assay with GBM, 7.10; in assay [4], 8.10; in assay [2], 8.52; with LS174T, 7.22. For the same molecule, the pIC50 in assay [5] was 6.85; in [3] it was 7.68.

As for `CCOc1ccnc2[nH]cc(-c3ccnc(N)n3)c12` [MERIOLIN 4], the pIC50 was 8.15 in assay [1]; 6.66 with HEK293; 8.15 on CDK9/cyclin T1; 6.89 with GBM; 8.00 in [4]; 7.22 with KMS-11. The pIC50 in [2] is 8.30; in the assay with LS174T, 7.00; with SH-SY5Y it was 7.09; in [5], 7.00; in assay [3], 7.52.

For `Nc1nccc(-c2c[nH]c3nc(Br)ccc23)n1`, the negative-log IC50 (pIC50) in assay [1] is 5.89; in the assay with HEK293, less than 4.00; at CDK9/cyclin T1, 6.00; with GBM it was less than 4.70; in assay [4] it was 5.66; with KMS-11, less than 4.82. The pIC50 in [6] is 6.52; in assay [2], 6.17; in the assay on LS174T, less than 4.52; with SH-SY5Y, 4.37; in [3], 4.52.

`Nc1nccc(-c2c[nH]c3nccc(Cl)c23)n1`: the pIC50 is 7.22 in assay [1]; 4.97 with HEK293; 7.30 on CDK9/cyclin T1; 5.00 with GBM; 6.62 in assay [4]; 5.12 in the assay on KMS-11. For the same molecule, the pIC50 in assay [2] was 6.64; in the assay with LS174T it was less than 5.00; in the assay with SH-SY5Y, 5.72; in [5], 5.52; in [3] it was 5.70.

On to `COc1ccnc2[nH]cc(-c3ccncn3)c12`, for which the pIC50 in assay [1] was 6.10; in the assay with HEK293, 4.45; on CDK9/cyclin T1, 6.66; in the assay on GBM, 5.00; in the assay with KMS-11, 5.00; in [2] it was 5.89. Besides, the pIC50 with LS174T is 5.00; in the assay with SH-SY5Y, 4.99; in assay [5], 6.22; in [3] it was 5.96.

As for `COc1ccnc2[nH]cc(-c3ccnc(N)n3)c12` [MERIOLIN 3], the pIC50 with HCT-116 [7] is 7.20; in [1], 7.96; with HEK293 it was 6.62; on CDK9/cyclin T1, 8.22; with GBM it was 6.85; in assay [4] it was 6.77. For the same molecule, the pIC50 is 6.92 in the assay with KMS-11; 6.77 in [2]; 6.89 in the assay with LS174T; 7.14 in the assay with SH-SY5Y; 6.70 in assay [5]; 6.64 in assay [3]. The Activity in the assay on HCT-116 [8] amounted to 720 um.

For `Cn1cc(-c2ccnc(N)n2)c2c(O)ccnc21` [MERIOLIN 8], the pIC50 is 5.74 in assay [1]; less than 4.52 with HEK293; 5.92 on CDK9/cyclin T1; less than 4.70 with GBM; less than 4.70 in the assay on KMS-11; 5.26 in assay [2]. The pIC50 in the assay with LS174T is less than 4.52; with SH-SY5Y, less than 4.52; in assay [5] it was 5.64; in assay [3], 5.34.

On to `CCCOc1ccnc2[nH]cc(-c3ccnc(N)n3)c12` [MERIOLIN 5], for which the pIC50 is 8.52 in [1]; 7.07 with HEK293; 8.25 on CDK9/cyclin T1; 7.10 with GBM; 8.15 in assay [4]; 7.40 with KMS-11. Besides, the pIC50 in assay [2] is 8.52; in the assay with LS174T it was 7.33; with SH-SY5Y it was 7.59; in [5] it was 6.70; in [3], 7.60.

In the case of `COCCOc1ccnc2[nH]cc(-c3ccnc(N)n3)c12` [MERIOLIN 7], the negative logarithm of the IC50 (pIC50) in assay [1] is less than 5.00; with HEK293, less than 4.00; at CDK9/cyclin T1, 5.28; in the assay with GBM, less than 4.70; in assay [4] it was 4.46; in the assay on KMS-11, less than 4.70. Besides, the pIC50 in assay [6] was less than 5.00; in [2], 4.85; in the assay on LS174T, less than 4.52; with SH-SY5Y, less than 4.00; in assay [5], 4.00; in assay [3], 4.20.

As to `COc1ccnc2[nH]cc(-c3ccnc(SC)n3)c12`, the pIC50 in assay [1] was 5.68; in the assay with HEK293, 4.18; on CDK9/cyclin T1, 5.96; in the assay on GBM, less than 4.70; in [4] it was 5.74; in the assay on KMS-11, less than 4.70. The negative-log IC50 (pIC50) in assay [2] was 5.64; in the assay on LS174T, less than 4.52; in the assay with SH-SY5Y, less than 4.00; in assay [5] it was 6.22; in assay [3], 5.15.

Turning to `Nc1nccc(-c2c[nH]c3ncccc23)n1` [MERIOLIN 1], the pIC50 in the assay on HEK293 is 5.66; on CDK9/cyclin T1, 7.59; in the assay with GBM it was 5.86; with KMS-11, 5.90; in assay [2], 6.29; in the assay with LS174T it was 5.82. In the assay with SH-SY5Y, the negative logarithm of the IC50 (pIC50) was 6.17.

In the case of `COc1ccnc2c1c(-c1ccnc(N)n1)cn2C` [MERIOLIN 9], the pIC50 in [4] was 4.60; in assay [2], 4.14.

On to `Nc1nccc(-c2c[nH]c3nccc(O)c23)n1` [MERIOLIN 2], for which the pIC50 was 7.74 in assay [1]; 6.02 with HEK293; 7.74 on CDK9/cyclin T1; 5.92 with GBM; 7.24 in assay [4]; 6.22 in the assay with KMS-11. Besides, the pIC50 was 7.30 in [2], 5.97 in the assay on LS174T, 6.39 in the assay with SH-SY5Y and 6.40 in assay [3].

For the origin of these results see ChEMBL document CHEMBL1141564, “Meriolins (3-(pyrimidin-4-yl)-7-azaindoles): synthesis, kinase inhibitory activity, cellular effects, and structure of a CDK2/cyclin A/meriolin complex” (J Med Chem, 2008).
